Results: patent US20100267706A1, “Compounds, Compositions and Methods Comprising Pyridazine Derivatives” (Institute for OneWorld Health, priority 2009, published 2010)

target: T1, CFTR (Homo sapiens, UniProt P13569); test: T84 assay (FLIPR membrane potential, forskolin/IBMX-stimulated CFTR channel activity); assay type: cell-based; details: Human colonic T84 cells; average of at least 2 runs unless annotated n = 1
T1 construct: host or cells: Human colonic T84 cells
Description: (§1) For example, Human colonic T84 cells can be acquired from the European Collection of Cell Cultures (ECACC) and grown in standard culture conditions as described by the supplier. On the day before assay 25,000 T84 cells per well are plated into standard black walled, clear bottom 384-well assay plates in standard growth medium consisting of DMEM:F12 with 10% FBS and incubated overnight. On the day of the assay the plates are washed using a standard assay buffer (HBSS with 10 mM Hepes) and incubated for 15 minutes in serum free cell culture medium before the addition of a commercially available membrane potential sensitive fluorescent dye (FLIPR Red membrane potential dye, Molecular Devices Corporation). T84 cells are incubated with the FLIPR Red membrane potential dye for 45 minutes in the presence and absence of test compound before being transferred to a commercially available fluorescence imaging plate reader (FLIPR384, Molecular Devices Corporation). Fluorescence levels are monitored continuously every second for 150 seconds; after an initial 10 second baseline, CFTR channel activity is stimulated through the addition of 10 μM forskolin in the presence of 100 μM of the phosphodiesterase inhibitor iso-butyl-methylxanthine (IBMX). Addition of the forskolin leads to the activation of intracellular adenylyl cylase 1, elevating cAMP levels and results in the phosphorylation and opening of CFTR anion channels. CFTR channel opening causes chloride ion efflux and subsequent depolarization of the cells, which is measured by an increase in fluorescence. CFTR inhibitor compounds prevent cell depolarization and the associated increase in fluorescence.
as §1, with “Human colonic” for “For example, Human colonic”, “T84 cells are acquired from” for “T84 cells can be acquired from”, “(ECACC) and are grown in” for “(ECACC) and grown in”

T1 sequence (P13569 whole entry): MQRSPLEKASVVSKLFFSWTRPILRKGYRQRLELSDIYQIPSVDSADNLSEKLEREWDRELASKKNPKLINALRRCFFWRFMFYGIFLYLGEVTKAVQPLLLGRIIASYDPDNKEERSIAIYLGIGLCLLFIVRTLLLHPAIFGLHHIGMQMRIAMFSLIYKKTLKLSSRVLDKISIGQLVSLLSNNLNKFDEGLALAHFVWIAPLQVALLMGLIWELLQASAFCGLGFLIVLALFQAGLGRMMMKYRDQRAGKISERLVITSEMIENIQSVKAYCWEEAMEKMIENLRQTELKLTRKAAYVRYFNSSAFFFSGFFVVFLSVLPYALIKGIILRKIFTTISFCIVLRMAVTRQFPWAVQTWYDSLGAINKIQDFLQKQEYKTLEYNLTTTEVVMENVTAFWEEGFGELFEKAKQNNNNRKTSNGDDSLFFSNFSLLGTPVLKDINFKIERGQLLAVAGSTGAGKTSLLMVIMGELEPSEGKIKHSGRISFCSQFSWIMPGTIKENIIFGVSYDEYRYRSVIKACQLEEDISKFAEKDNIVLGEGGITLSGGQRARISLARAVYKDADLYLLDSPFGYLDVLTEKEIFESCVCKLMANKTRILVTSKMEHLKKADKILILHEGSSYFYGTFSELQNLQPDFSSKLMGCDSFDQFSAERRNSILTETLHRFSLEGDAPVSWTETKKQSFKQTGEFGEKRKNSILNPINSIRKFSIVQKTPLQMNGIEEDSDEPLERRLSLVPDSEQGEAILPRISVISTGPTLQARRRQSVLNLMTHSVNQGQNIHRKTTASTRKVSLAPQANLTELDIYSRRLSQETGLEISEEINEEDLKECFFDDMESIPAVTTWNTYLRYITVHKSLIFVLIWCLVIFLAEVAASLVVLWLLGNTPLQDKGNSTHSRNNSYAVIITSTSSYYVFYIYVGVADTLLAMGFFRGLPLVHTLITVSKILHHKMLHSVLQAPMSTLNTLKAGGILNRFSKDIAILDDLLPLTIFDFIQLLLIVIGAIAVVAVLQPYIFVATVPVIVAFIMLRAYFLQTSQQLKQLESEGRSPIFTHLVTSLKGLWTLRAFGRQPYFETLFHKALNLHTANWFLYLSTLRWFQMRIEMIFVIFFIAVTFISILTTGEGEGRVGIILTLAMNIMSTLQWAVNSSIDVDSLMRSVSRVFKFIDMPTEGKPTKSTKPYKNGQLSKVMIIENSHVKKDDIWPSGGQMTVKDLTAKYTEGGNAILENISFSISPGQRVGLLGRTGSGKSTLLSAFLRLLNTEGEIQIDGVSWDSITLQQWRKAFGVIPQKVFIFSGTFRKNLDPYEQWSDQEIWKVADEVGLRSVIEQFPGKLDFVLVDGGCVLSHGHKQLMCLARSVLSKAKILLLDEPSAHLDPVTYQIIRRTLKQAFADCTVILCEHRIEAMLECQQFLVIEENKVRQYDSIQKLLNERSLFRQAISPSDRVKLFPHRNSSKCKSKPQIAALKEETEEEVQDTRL

Row | SMILES | IC50 [µM]
1 | O=C(c1cc(-c2cc(Cl)c(O)c(Cl)c2)nnc1OCCc1ccc(Cl)cc1)N(CCO)Cc1ccccc1 [Compound 11, N-benzyl-3-(4-chlorophenethoxy)-6-(3,5-dichloro-4-hydroxyphenyl)-N-(2-hydroxyethyl)pyridazine-4-carboxamide] | 8.26
2 | CCN(Cc1ccccc1)C(=O)c1cc(-c2cc(Cl)c(O)c(Cl)c2)nnc1OCCc1ccc(Cl)cc1 [Compound 27, N-benzyl-3-(4-chlorophenethoxy)-6-(3,5-dichloro-4-hydroxyphenyl)-N-ethylpyridazine-4-carboxamide] | 17
3 | CN(Cc1ccccc1)C(=O)c1cc(-c2cc(Cl)c(O)c(Cl)c2)nnc1OCCc1ccc(Cl)cc1 [Compound 28, N-benzyl-3-(4-chlorophenethoxy)-6-(3,5-dichloro-4-hydroxyphenyl)-N-methylpyridazine-4-carboxamide] | 10.2
4 | COCCN(Cc1ccccc1)C(=O)c1cc(-c2cc(Cl)c(O)c(Cl)c2)nnc1OCCc1ccc(Cl)cc1 [Compound 29, N-benzyl-3-(4-chlorophenethoxy)-6-(3,5-dichloro-4-hydroxyphenyl)-N-(2-methoxyethyl)pyridazine-4-carboxamide] | 8.5
5 | O=C(c1cc(-c2cc(Cl)c(O)c(Cl)c2)nnc1OCCc1ccc(Cl)cc1)N(CCO)Cc1ccc(Cl)c(Cl)c1 [Compound 30, 3-(4-chlorophenethoxy)-6-(3,5-dichloro-4-hydroxyphenyl)-N-(3,4-dichlorobenzyl)-N-(2-hydroxyethyl)pyridazine-4-carboxamide] | 19
6 | COc1ccc(CN(CCO)C(=O)c2cc(-c3cc(Cl)c(O)c(Cl)c3)nnc2OCCc2ccc(Cl)cc2)cc1 [Compound 31, 3-(4-chlorophenethoxy)-6-(3,5-dichloro-4-hydroxyphenyl)-N-(2-hydroxyethyl)-N-(4-methoxybenzyl)pyridazine-4-carboxamide] | 25.2
7 | O=C(c1cc(-c2cc(Cl)c(O)c(Cl)c2)nnc1OCCc1ccc(Cl)cc1)N(CCO)Cc1ccc2c(c1)OCO2 [Compound 32, N-(benzo[d][1,3]dioxol-5-ylmethyl)-3-(4-chlorophenethoxy)-6-(3,5-dichloro-4-hydroxyphenyl)-N-(2-hydroxyethyl)pyridazine-4-carboxamide] | 16.1
8 | COc1ccc(CN(CCO)C(=O)c2cc(-c3cc(Cl)c(O)c(Cl)c3)nnc2OCCc2ccc(Cl)cc2)cc1OC [Compound 33, 3-(4-chlorophenethoxy)-6-(3,5-dichloro-4-hydroxyphenyl)-N-(3,4-dimethoxybenzyl)-N-(2-hydroxyethyl)pyridazine-4-carboxamide] | 13.7
9 | CC(C)(C)c1ccc(CNC(=O)c2cc(-c3cc(Cl)c(O)c(Cl)c3)nnc2OCCc2ccc(Cl)cc2)cc1 [Compound 34, N-(4-tert-butylbenzyl)-3-(4-chlorophenethoxy)-6-(3,5-dichloro-4-hydroxyphenyl)pyridazine-4-carboxamide] | 20.1

tested on: cholera toxin (CTX)-induced net fluid secretion in small intestine loops; test: not given; assay type: in vivo, mice (CD1 strain); details: 4 hours

Row | SMILES | closed loop % inhibition@100 μg [%]
10 | O=C(c1cc(-c2cc(Cl)c(O)c(Cl)c2)nnc1OCCc1ccc(Cl)cc1)N(CCO)Cc1ccccc1 [Compound 11, N-benzyl-3-(4-chlorophenethoxy)-6-(3,5-dichloro-4-hydroxyphenyl)-N-(2-hydroxyethyl)pyridazine-4-carboxamide] | 63.2
